How the values were obtained:
[1] = pH changes in liposomes experiencing a Cl- gradient (oligophenoxyacetamides); format: biochemical
Experimental: FIG. 2B illustrates alkanization of the vesicular aqueous compartment upon application of compounds 1-6 to a suspension of NaCl-containing vesicles in isosmomolar Na2SO4 buffer. Concentration of compounds 1-6 in the vesicular suspension was 20 μm (4 mol %). Legend for traces denotes use of oligocompounds 1, 2, 3, 4, 5, 6.
Liposome Preparation for Fluorimetric Assays. Egg yolk L-α-phosphatidylcholine (EYPC ethanol solution, […], 79 μmol) was dissolved in a CHCl3/MeOH mixture, the solution was evaporated under reduced pressure and the resulting thin film was dried under high vacuum for 2 h. The lipid film was hydrated in 1.2 mL of phosphate buffer (10 mM sodium phosphate, pH=6.4, 75-100 mM MnX, M=N^+, K^+, X=Cl^−, SO4^2−, n=1,2) containing 10 μM HPTS (pyranine, 8-hydroxypyrene-1,3,6-trisulfonic acid trisodium salt) for 40 min. During hydration, the suspension was submitted to 5 freeze-thaw cycle (liquid nitrogen, water at rt). The large multilamellar liposome suspension (1 mL) was submitted to high-pressure extrusion at rt (21 extrusions through a 0.1 μm polycarbonate membrane afforded a suspension of LUVs with an average diameter of 100 nm). The LUV suspension was separated from extravesicular dye by size exclusion chromatography (SEC) (stationary phase: Sephadex G-10, mobile phase: phosphate buffer) and diluted with the same phosphate buffer to give a stock solution with a lipid concentration of 11 mM (assuming 100% of lipid was incorporated into liposomes).
Analysis of pH changes in the liposomes experiencing a CT gradient. a) Outwardly directed gradient of Cl:HPTS-loaded vesicles (100 μL of the stock solution), filled with a saline phosphate buffer (10 mM sodium phosphate, pH 6.4, 100 mM NaCl) were suspended in 1.9 mL of an isosmotic phosphate sulfate buffer (10 mM sodium phosphate, pH 6.0, 75 mM Na2SO4) and placed into a fluorimetric cell. The emission of HPTS at 510 nm was monitored with excitation wavelengths at 403 and 460 nm simultaneously. During the experiment, 20 μL of a 0-2 mM DMSO solution of the compound of interest was added through an injection port. Intravesicular pH values were obtained as described for pH-stat transport assays. At the end of experiment, the aqueous compartment of liposomes was equilibrated with extravesicular solution by lysis of liposomes with detergent (40 μL of 5% aqueous Triton X100). b) Inwardly directed gradient of Cl:HPTS-loaded vesicles (100 μL of the stock solution), filled with a isoosimomolar sulfate phosphate buffer (10 mM sodium phosphate, pH 6.0, 75 mM Na2SO4) were suspended in 1.9 mL of an isosmotic phosphate saline buffer (10 mM sodium phosphate, pH 6.4, 100 mM NaCl) and placed into a fluorimetric cell. Further analysis was conducted as described for the case of an outwardly directed gradient of […]. Analysis of the electrostatic potential on the surface of liposomes. LUVs (100 μL of stock solution, 100 mM KCl inside and outside or 75 mM Na2SO4 inside and outside) were suspended in 1.9 mL of 100 mM NaCl buffer containing 60 nM safranin O (a potential-sensitive dye). Safranin O emission was monitored at 580 nm with excitation at 520 nm. During the course of the experiment, 20 μL of a 0-0.12 mM DMSO solution of valinomycin or 0-2 mM of 3-8 DMSO solution was added. Experiments were completed by injection of 20 μL of 1 mM aqueous solution of the defect-inductive peptide melittin.

[2] = 1H NMR binding experiment in CDCl3, HCl extraction
Experimental: FIG. 7 illustrates a series of […] spectra (400 mHz, CDCl3, 22° C.) of calixarene tetrabutylamide in the presence of different species: (A) the compound alone (5 mm); (B) the compound with 1 equiv. of Bu4 NCl; (C) the compound after washing CDCl3 solution of the compound with an aqueous solution of 0.5 m HCl; (D) after washing CDCl3 solution of the compound with an aqueous solution of 0.5 M H2SO4.
To obtain evidence for Cl^− binding by 2, ^1H NMR experiments were run in CDCl3 using n-Bu4-NCl and HCl as Cl^− sources. Anion receptors usually show chemical shift perturbation upon anion complexation, particularly for amide NH protons that hydrogen bond to the anion. […] Calix[4]arene tetrabutylamide 2 does, however, bind HCl. Thus, shaking a CDCl3 solution of 2 with aqueous HCl led to disappearance of the amide NH proton and a significant upfield shift of the […] protons (FIG. 4c).

[3] = sodium picrate extraction in CDCl3 monitored by 1H NMR; format: binding
Experimental: FIG. 9 ^1H NMR spectrum (400 MHz, CDCl3, 22° C.) of (A) calixarene octabutylamide (5 mM) in CDCl3, (B) the same compound after addition of 1 equiv. of NaPic. (C) the same compound after addition of 2 equiv. of NaPic.
The secondary amide NH and the core aromatic ring framework, in this case the calix[4]arene framework, are essential for the HCl transport activity of 2. Calix[4]arene octabutylamide 3 was used as a negative control for tetrabutylamide 2, as the lack of amide NH protons in 3 would preclude Cl^− binding. Instead, 3 should be a cation ionophore, much like tetrakis(diethylcarbamoylmethoxy)-p-tert-butylcalix[4]arene-1,3-alt that coordinates cations in the solid-state and solution. To confirm that 3 binds Na^+, sodium picrate extraction in CDCl3 was monitored by ^1H NMR spectroscopy. Complexation of the salt by 3 was evident. Two distinct complexes were formed, corresponding to a 1:1 and a 2:1 Na^+:3 stoichiometry. The 1:1 complex was generated by adding 1 equiv of solid sodium picrate to a solution of 3. Binding this Na^+ led to a symmetry loss for 3, indicated by doubling of the ^1H NMR peaks. […] In contrast, sodium picrate extraction by calix[4]arene tetrabutylamide 2 was not detected by ^1H NMR spectroscopy.

[4] = 4 mol %, NaCl-loaded liposomes in Na2SO4 buffer

Structure (SMILES)	pH gradient generated [1, 4]	time to reach the pH gradient [1, 4] [minutes]	time the pH gradient remained stable ([1]; 4 mol %, until the liposomes were lysed) [minutes]	relative ability to alter the pH in liposomes under a Cl− gradient ([1]; NaCl-loaded liposomes in Na2SO4 buffer)	transport under inwardly directed Cl− gradient ([1]; sulfate-loaded liposomes suspended in Cl− buffer)	HCl binding [2]	sodium picrate extraction [3]
CCCCNC(=O)COc1ccccc1Cc1cccc(Cc2ccccc2OCC(=O)NCCCC)c1OCC(=O)NCCCC [trimer 3, Tris-(N-butyl-2-phenoxyacetamide)]	approximately are pH unit	≤ 1.5	5	most active compound in the series tested	transports both Cl^− and H^+ into sulfate-loaded liposomes	–	–
CCCCNC(=O)COc1c2cccc1Cc1cccc(c1OCC(=O)NCCCC)Cc1cccc(c1OCC(=O)NCCCC)Cc1cccc(c1OCC(=O)NCCCC)C2 [calix[4]arene tetrabutylamide 2, Calix[4]arene tetrabutylamide]	–	–	–	–	–	binds HCl	not detected

Reference: patent publication US7355074B2, “Compounds having aromatic rings and side-chain amide-functionality and a method for transporting monovalent anions across biological membranes using the same” (The University of Maryland, priority 2003, dated 2008)
